Where “and” joins values, the source holds several entries; their conditions need not be identical. Identical values can stand only once. Like-named read-outs stand apart in the source and are kept apart here.

In assay [1] the target is T1, α9α10 nAChR (Homo sapiens, UniProt Q9GZZ6+Q9UGM1).
T1 construct: expressed in transfected cells; host or cells: HEK293T
Put plainly: cell-based. Type of assay: cell-based. Particulars: for rank order of potency of antagonists: dose response curves. The text has this:
After three washes, the plates were placed in the FLIPR stage. […] Maximal FLIPR responses to ACh were plotted (FIGS. 3A-C).
Target sequence in this assay (Q9GZZ6 25-450): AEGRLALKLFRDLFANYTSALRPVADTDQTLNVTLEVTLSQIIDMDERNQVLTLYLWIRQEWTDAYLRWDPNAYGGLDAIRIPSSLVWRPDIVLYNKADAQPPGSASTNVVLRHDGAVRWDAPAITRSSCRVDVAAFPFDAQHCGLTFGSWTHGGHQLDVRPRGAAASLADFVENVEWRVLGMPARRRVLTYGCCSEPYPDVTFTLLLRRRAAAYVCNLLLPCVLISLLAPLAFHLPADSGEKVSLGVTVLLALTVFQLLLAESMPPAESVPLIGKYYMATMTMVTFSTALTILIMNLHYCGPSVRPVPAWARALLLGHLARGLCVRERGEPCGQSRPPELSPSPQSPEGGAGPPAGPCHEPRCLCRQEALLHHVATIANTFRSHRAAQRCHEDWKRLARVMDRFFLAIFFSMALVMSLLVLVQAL
Target sequence in this assay (Q9UGM1 23-479): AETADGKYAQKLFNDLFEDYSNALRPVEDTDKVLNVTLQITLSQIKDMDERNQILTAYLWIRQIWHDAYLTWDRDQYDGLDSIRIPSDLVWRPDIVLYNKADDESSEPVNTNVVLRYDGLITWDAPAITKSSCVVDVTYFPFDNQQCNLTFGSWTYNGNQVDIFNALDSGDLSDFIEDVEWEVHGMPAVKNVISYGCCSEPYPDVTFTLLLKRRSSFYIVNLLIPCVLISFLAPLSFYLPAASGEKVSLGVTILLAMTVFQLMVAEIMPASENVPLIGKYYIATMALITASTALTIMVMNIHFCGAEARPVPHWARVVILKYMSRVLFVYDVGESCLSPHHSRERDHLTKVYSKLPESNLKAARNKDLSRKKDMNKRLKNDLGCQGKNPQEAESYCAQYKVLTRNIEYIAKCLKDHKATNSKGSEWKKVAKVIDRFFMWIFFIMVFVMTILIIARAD

In assay [2] the target is T1, α9α10 nAChR. Put plainly: FLIPR calcium assay of HEK293T cells co-transfected with α9α10 nAChR and cDNA clones, response evoked by 200 μM ACh. Particulars: 200 μM ACh; for FLIPR Response (Fold/Baseline): 180 s. The class given is cell-based. As for the experimental part:
Human embryonic kidney 293T (HEK293T) cells were cultured in high glucose DMEM medium supplemented with 10% FBS, sodium pyruvate and penicillin/streptomycin. Prior to transfection, cells were seeded at ˜80-90% confluence in 384-well fluorescence imaging plate reader (FLIPR) assay plates. After a 4 hour (hr) incubation, wells of cells were individually co-transfected with human α9α10 nAChR plus one of 20,000 clones from cDNA libraries encoding most all human proteins (Origene Technologies; Rockville, Md.; Broad Institute; Cambridge, Mass.) using Fugene HD (Promega; Madison, Wis.) according to the manufacture's protocol. After two days incubation, cells were washed three times with assay buffer (137 mM NaCl, 4 mM KCl, 2 mM CaCl2, 1 mM MgCl2, 5 mM glucose, 10 mM HEPES pH7.4) and loaded with Calcium5 dye (Molecular Devices; San Jose, Calif.) and 1.25 mM probenecid for 1 hr at room temperature (RT). After three washes, the plates were placed in the FLIPR stage.
To further characterize the regulation of α9α10 nAChR expression, HEK293T cells were co-transfected with α9α10 nAChR and each of CHAT, TMIE, TMEM100, TMEM132A, TMEM132C, TMEM132D, TMEM132E and TNFRSF10A individually and in combination (Table 2).
Target sequence in this assay (Q9UGM1 23-479): as above
Target sequence in this assay (Q9GZZ6 25-450): as the sequence (Q9GZZ6 25-450) above

By IC50 is commonly meant the point on the concentration scale where inhibition reaches its midpoint. For `CN1[C@@H]2CC[C@H]1C[C@@H](OC(=O)C(CO)c1ccccc1)C2` (stereo partly drawn) [Atropine, atropine], the concentration for half-maximal inhibition (IC50) on α9α10 nAChR [1] (HEK293T, α9α10 nAChR + CHAT + TMIE, 200 μM ACh, read-out: Antagonist IC50) is 340 µM; at α9α10 nAChR [1] (HEK293T, α9α10 nAChR + CHAT, 200 μM ACh, read-out: Antagonist IC50), 12.3 µM; at α9α10 nAChR [1] (HEK293T, α9α10 nAChR + TMIE, 200 μM ACh, read-out: Antagonist IC50), 15.7 µM. The “rank order of potency of antagonists” value at α9α10 nAChR [1] (200 μM ACh) was “MLA>strychnine>atropine>nicotine”.
In the case of `CN1CCCC1c1cccnc1` (stereo not drawn) [Nicotine, nicotine], at α9α10 nAChR [1] (Antagonist IC50), the IC50 is 384 µM and 544 µM and 1500 µM. Besides, the “rank order of potency of antagonists” value on α9α10 nAChR [1] (200 μM ACh) was “MLA>strychnine>atropine>nicotine”.
For `O=C1C[C@@H]2OCC=C3CN4CC[C@]56c7ccccc7N1[C@H]5[C@H]2[C@H]3C[C@H]46` [Strychnine, strychnine], the IC50 at α9α10 nAChR [1] (Antagonist IC50, HEK293T, α9α10 nAChR + CHAT + TMIE, 200 μM ACh) worked out at 1.8 µM; on α9α10 nAChR [1] (Antagonist IC50, HEK293T, α9α10 nAChR + CHAT, 200 μM ACh), 1.3 µM; on α9α10 nAChR [1] (Antagonist IC50, HEK293T, α9α10 nAChR + TMIE, 200 μM ACh), 0.76 µM.
“TNFRSF10A: Tumor necrosis factor receptor superfamily member 10A, SEQ ID NO: 10, co-transfected cDNA clone”: the “FLIPR Response (Fold/Baseline)” value in the assay with α9α10 nAChR [2] (HEK293T co-transfected with α9α10 nAChR + CHAT plus the named gene) is on record as 2.0 Fold/Baseline; in the assay with α9α10 nAChR [2] (HEK293T co-transfected with α9α10 nAChR plus the named gene), 0.4 Fold/Baseline. Further, in the assay with α9α10 nAChR [2] (HEK293T, 20,000 cDNA clones), the “functional expression of co-transfected α9α10 nAChR in cDNA library screen” value was “enabled functional expression”.

The record behind these values is US12227771B2, “Expression systems and methods of use thereof” (Janssen Pharmaceutica NV, priority 2019, dated 2025).
